Data from ChEMBL document CHEMBL1153131, “Synthesis and antitumor activity of novel 2',3'-dideoxy-2',3'-diethanethionucleosides bearing 1,2,3-triazole residues” (Bioorg Med Chem Lett, 2010).

Assays:
Assay type in all cases: functional, cell-based; call rule not given here
HepG2 = assay: Cytotoxicity against human HepG2 cells after 72 hrs by MTT assay
HeLa = assay: Cytotoxicity against human HeLa cells after 72 hrs by MTT assay
A549 = assay: Cytotoxicity against human A549 cells after 72 hrs by MTT assay; conditions: A549, 72 h
[1] = Cytotoxicity against human LAC cells after 72 hrs by MTT assay
[2] = Homo sapiens, HepG2, 72 h, read-out: EC50
[3] = Homo sapiens, LAC, 72 h, read-out: EC50

Row | SMILES | EC50 (HepG2; [2]) [µM] | EC50 (HeLa) [µM] | EC50 (A549) [µM] | EC50 [1, 3] [µM] | EC50 ([1]; lac) | EC50 (HepG2; hepg2)
1 | CCS[C@@H]1[C@H](SCC)[C@@H](CO)O[C@H]1n1cc(-c2ccc(OC)cc2)nn1 | 11 | 5.69 | 23.4 | 14.5 | – | –
2 | CCS[C@@H]1[C@H](SCC)[C@@H](CO)O[C@H]1n1cc(Cn2cc(C)c(=O)[nH]c2=O)nn1 | > 100 | > 100 | > 100 | > 100 | – | –
3 | CCS[C@@H]1[C@H](SCC)[C@@H](CO)O[C@H]1n1ccc(N)nc1=O | 116 | 177 | 86.4 | – | Not Active | –
4 | CCS[C@@H]1[C@H](SCC)[C@@H](CO)O[C@H]1n1cc(CO)nn1 | > 100 | > 100 | > 100 | > 100 | – | –
5 | CCS[C@@H]1[C@H](SCC)[C@@H](CO)O[C@H]1n1cc(-c2ccccc2)nn1 | 9.6 | 11.2 | 44.1 | 20.7 | – | –
6 | CCS[C@@H]1[C@H](SCC)[C@@H](CO)O[C@H]1n1cc(C)c(=O)[nH]c1=O | – | 29.5 | 86.4 | – | Not Active | Not Active
7 | O=c1[nH]c(=O)n([C@H]2C[C@H](O)[C@@H](CO)O2)cc1F [FLOXURIDINE] | 18.8 | 10.3 | 9.74 | 32.1 | – | –
8 | CCS[C@@H]1[C@H](SCC)[C@@H](CO)O[C@H]1n1ccc(=O)[nH]c1=O | 74.7 | 75.7 | 87.4 | – | Not Active | –
9 | CCS[C@@H]1[C@H](SCC)[C@@H](CO)O[C@H]1n1cc(Cn2ccc(N)nc2=O)nn1 | > 100 | > 100 | > 100 | > 100 | – | –
10 | CCS[C@@H]1[C@H](SCC)[C@@H](CO)O[C@H]1n1cc(-c2ccc(F)cc2)nn1 | 9.62 | 6.92 | 20.2 | 16.2 | – | –
11 | CCS[C@@H]1[C@H](SCC)[C@@H](CO)O[C@H]1n1cc(C(=O)NC)nn1 | > 100 | > 100 | > 100 | > 100 | – | –
